Test results from ChEMBL document CHEMBL3108738, “The chemical and biological potential of C ring modified triterpenoids” (Eur J Med Chem, 2014).

Experiments:
[1] = test system: A2780; test: Cytotoxicity against human A2780 cells after 96 hrs by SRB assay; format: functional, cell-based; conditions: A2780, 96 h
[2] = test system: MCF7; test: Cytotoxicity against human MCF7 cells after 96 hrs by SRB assay; format: functional, cell-based; conditions: MCF7, 96 h
[3] = test system: 8505C; test: cells; format: functional, cell-based; conditions: Homo sapiens, 96 h
Description: Cytotoxicity against human 8505C cells after 96 hrs by SRB assay

[4] = test system: A549; test: Cytotoxicity against human A549 cells after 96 hrs by SRB assay; format: functional, cell-based; conditions: A549, 96 h
[5] = Cytotoxicity against human 518A2 cells after 96 hrs by SRB assay; format: functional, cell-based; conditions: 518A2, 96 h
[6] = test system: NIH3T3; test: Cytotoxicity against mouse NIH/3T3 cells after 96 hrs by SRB assay; format: ADME, cell-based; conditions: NIH3T3, 96 h
[7] = test system: HT-29; test: Cytotoxicity against human HT-29 cells after 96 hrs by SRB assay; format: functional, cell-based; conditions: HT-29, 96 h

`CC1(C)CC[C@]2(C(=O)OCc3ccccc3)CC[C@]3(C)C(=CC[C@@H]4[C@@]5(C)CC[C@H](O)C(C)(C)[C@@H]5CC[C@]43C)[C@@H]2C1` showed an IC50 [1] of 23 µM, an IC50 [2] of 15.8 µM and an IC50 [3] of 29.1 µM. It also gave an IC50 [4] of 28 µM, an IC50 [5] of 28 µM and an IC50 [6] of 22.4 µM. The IC50 [7] was 28.7 µM.

For `CN[C@@H]1C[C@H]2O[C@@](C)([C@@H]1OC)n1c3ccccc3c3c4c(c5c6ccccc6n2c5c31)C(=O)NC4` [STAUROSPORINE], the IC50 [2] was 0.4 µM.

With `COC(=O)[C@]12CCC(C)(C)C[C@H]1[C@H]1C(=O)C[C@@H]3[C@@]4(C)C[C@@H](OC(C)=O)[C@H](OC(C)=O)C(C)(C)[C@@H]4CC[C@@]3(C)[C@]1(C)CC2` the IC50 [1] was 11.6 µM, the IC50 [2] was 23.8 µM and the IC50 [3] was 10.3 µM. The IC50 [4] was 14.1 µM, the IC50 [5] was 9.6 µM and the IC50 [6] was 31.7 µM. It also gave an IC50 [7] of 17.6 µM.

For `COC(=O)[C@]12CCC(C)(C)C[C@H]1C1=CC[C@@H]3[C@@]4(C)C[C@@H](O)[C@H](O)C(C)(C)[C@@H]4CC[C@@]3(C)[C@]1(C)CC2` [MASLINIC ACID METHYL ESTER], the IC50 [1] was 17.8 µM.

Compound `CC1(C)CC[C@@]23CC[C@]4(C)[C@@](OC2=O)([C@@H]3C1)[C@@H](Br)C[C@@H]1[C@@]2(C)C[C@@H](O)[C@H](O)C(C)(C)[C@@H]2CC[C@]14C` has an IC50 [1] of 25.9 µM, an IC50 [3] of 36.5 µM and an IC50 [4] of 29.1 µM. For the same compound, the IC50 [6] was 43.1 µM and the IC50 [7] was over 90 µM.

For `COC(=O)[C@]12CC[C@@H](C)[C@H](C)[C@H]1C1=CC[C@@H]3[C@@]4(C)CC[C@H](O)C(C)(C)[C@@H]4CC[C@@]3(C)[C@]1(C)CC2` [METHYL URSOLATE], the IC50 [1] was 15.3 µM, the IC50 [2] was 22.2 µM and the IC50 [3] was 20.6 µM. It also gave an IC50 [4] of 20.2 µM, an IC50 [5] of 17.7 µM and an IC50 [7] of 25.4 µM.

Compound `CC1(C)CC[C@]2(C(=O)O)CC[C@]3(C)C(=CC[C@@H]4[C@@]5(C)CC[C@H](O)C(C)(C)[C@@H]5CC[C@]43C)[C@@H]2C1` [OLEANOLIC_ACID] has an IC50 [1] of 14 µM, an IC50 [2] of over 60 µM and an IC50 [3] of over 60 µM. For the same compound, the IC50 [4] was 72.3 µM, the IC50 [5] was over 60 µM and the IC50 [6] was 76.4 µM. For the same compound, the IC50 [7] was 38.8 µM.

In the case of `CC1(C)CC[C@]2(C(=O)O)CC[C@]3(C)C(=CC[C@@H]4[C@@]5(C)C[C@@H](O)[C@H](O)C(C)(C)[C@@H]5CC[C@]43C)[C@@H]2C1` [MASLINIC ACID], the IC50 [2] is reported as 16.6 µM and the IC50 [6] is reported as 21.4 µM.

Compound `CC1(C)CC[C@@]23CC[C@]4(C)[C@@](OC2=O)([C@@H]3C1)[C@@H](I)C[C@@H]1[C@@]2(C)C[C@@H](O)[C@H](O)C(C)(C)[C@@H]2CC[C@]14C` has an IC50 [1] of 31.5 µM, an IC50 [3] of 72.1 µM and an IC50 [4] of 34.4 µM. The IC50 [6] was 80.2 µM and the IC50 [7] was over 90 µM.

With `COC(=O)[C@]12CCC(C)(C)C[C@H]1C1=CC[C@@H]3[C@@]4(C)C[C@@H](OC(C)=O)[C@H](OC(C)=O)C(C)(C)[C@@H]4CC[C@@]3(C)[C@]1(C)CC2` the IC50 [1] was 6.8 µM, the IC50 [2] was over 30 µM and the IC50 [3] was 13.3 µM. For the same compound, the IC50 [4] was 7.8 µM, the IC50 [5] was 8.6 µM and the IC50 [6] was 30.5 µM. The IC50 [7] was 26.3 µM.

Work on `CC1(C)CC[C@@]23CC[C@]4(C)[C@@](OC2=O)([C@@H]3C1)[C@@H](Cl)C[C@@H]1[C@@]2(C)C[C@@H](O)[C@H](O)C(C)(C)[C@@H]2CC[C@]14C` yielded an IC50 [1] of 34.2 µM, an IC50 [3] of 18 µM and an IC50 [4] of 33.1 µM. The IC50 [6] was over 90 µM and the IC50 [7] was 510 µM.

`CC1(C)CC[C@@]23CC[C@]4(C)[C@@](OC2=O)([C@@H]3C1)[C@@H](O)C[C@@H]1[C@@]2(C)C[C@@H](O)[C@H](O)C(C)(C)[C@@H]2CC[C@]14C` gave an IC50 [1] of 39.9 µM, an IC50 [2] of over 90 µM and an IC50 [3] of over 90 µM. For the same compound, the IC50 [4] was over 90 µM, the IC50 [5] was 78.4 µM and the IC50 [6] was 22.1 µM. It also gave an IC50 [7] of 92.8 µM.
